Results as given in the supplement of paper PMC10307832.

How the values were obtained:
Experiment in all cases: relative viability (nuclei count vs DMSO), 5 days (fraction); higher = more cells survive
PC-14 = tested on: PC-14
Method in brief: (§1)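 Five library-drug doses in √10 steps were combined with a fixed anchor-drug dose, or a single drug was given alone, by pin tool to lung cancer cell lines in 1536-well plates the day after seeding. Nuclei were stained and counted after 5 days. Relative viability is the nuclei count in treated wells over that in vehicle wells, taken as the median of duplicate plates.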

RERF-LC-KJ = tested on: RERF-LC-KJ
Method in brief: as §1

LK-2 = tested on: LK-2
Method in brief: as §1

H3255 = tested on: H3255
Method in brief: as §1

NCI-H2342 = tested on: NCI-H2342
Method in brief: as §1

EKVX = tested on: EKVX
Method in brief: as §1

NCI-H322M = tested on: NCI-H322M
Method in brief: as §1

HCC-827 = tested on: HCC-827
Method in brief: as §1

HCC-15 = tested on: HCC-15
Method in brief: as §1

PC-3 [JPC-3] = tested on: PC-3 [JPC-3]
Method in brief: as §1

ABC-1 = tested on: ABC-1
Method in brief: as §1

NCI-H1734 = tested on: NCI-H1734
Method in brief: as §1

NCI-H1437 = tested on: NCI-H1437
Method in brief: as §1

NCI-H2405 = tested on: NCI-H2405
Method in brief: as §1

NCI-H1355 = tested on: NCI-H1355
Method in brief: as §1

CAL-12T = tested on: CAL-12T
Method in brief: as §1

CC1(C)CCC(c2ccc(Cl)cc2)=C(CN2CCN(c3ccc(C(=O)NS(=O)(=O)c4ccc(N[C@H](CCN5CCOCC5)CSc5ccccc5)c(S(=O)(=O)C(F)(F)F)c4)cc3)CC2)C1 [Navitoclax] + NC(=O)Nc1cc(-c2cccc(F)c2)sc1C(=O)N[C@H]1CCCNC1 [AZD7762] (partner 0.2 µM)
relative viability (PC-14; first compound 0.005 µM): 0.326 | relative viability (PC-14; first compound 0.01581 µM): 0.413 | relative viability (PC-14; first compound 0.05 µM): 0.255 | relative viability (PC-14; first compound 0.1581 µM): 0.322 | relative viability (PC-14; first compound 0.5 µM): 0.325 | relative viability (RERF-LC-KJ; first compound 0.005 µM): 1 | relative viability (RERF-LC-KJ; first compound 0.01581 µM): 1.08 | relative viability (RERF-LC-KJ; first compound 0.05 µM): 0.824 | relative viability (RERF-LC-KJ; first compound 0.1581 µM): 1.12 | relative viability (RERF-LC-KJ; first compound 0.5 µM): 0.921 | relative viability (LK-2; first compound 0.005 µM): 0.593 | relative viability (LK-2; first compound 0.01581 µM): 0.567 | relative viability (LK-2; first compound 0.05 µM): 0.295 | relative viability (LK-2; first compound 0.1581 µM): 0.358 | relative viability (LK-2; first compound 0.5 µM): 0.351 | relative viability (H3255; first compound 0.005 µM): 0.891 | relative viability (H3255; first compound 0.01581 µM): 1.03 | relative viability (H3255; first compound 0.05 µM): 0.851 | relative viability (H3255; first compound 0.1581 µM): 0.922 | relative viability (H3255; first compound 0.5 µM): 0.805 | relative viability (NCI-H2342; first compound 0.005 µM): 0.532 | relative viability (NCI-H2342; first compound 0.01581 µM): 0.464 | relative viability (NCI-H2342; first compound 0.05 µM): 0.424 | relative viability (NCI-H2342; first compound 0.1581 µM): 0.603 | relative viability (NCI-H2342; first compound 0.5 µM): 0.571 | relative viability (EKVX; first compound 0.005 µM): 0.728 | relative viability (EKVX; first compound 0.01581 µM): 0.784 | relative viability (EKVX; first compound 0.05 µM): 0.769 | relative viability (EKVX; first compound 0.1581 µM): 0.729 | relative viability (EKVX; first compound 0.5 µM): 0.777 | relative viability (NCI-H322M; first compound 0.005 µM): 0.648 | relative viability (NCI-H322M; first compound 0.01581 µM): 0.626 | relative viability (NCI-H322M; first compound 0.05 µM): 0.511 | relative viability (NCI-H322M; first compound 0.1581 µM): 0.587 | relative viability (NCI-H322M; first compound 0.5 µM): 0.679 | relative viability (HCC-827; first compound 0.005 µM): 0.274 | relative viability (HCC-827; first compound 0.01581 µM): 0.188 | relative viability (HCC-827; first compound 0.05 µM): 0.186 | relative viability (HCC-827; first compound 0.1581 µM): 0.199 | relative viability (HCC-827; first compound 0.5 µM): 0.235 | relative viability (HCC-15; first compound 0.005 µM): 0.868 | relative viability (HCC-15; first compound 0.01581 µM): 1.2 | relative viability (HCC-15; first compound 0.05 µM): 0.838 | relative viability (HCC-15; first compound 0.1581 µM): 1.03 | relative viability (HCC-15; first compound 0.5 µM): 1.05 | relative viability (PC-3 [JPC-3]; first compound 0.005 µM): 0.726 | relative viability (PC-3 [JPC-3]; first compound 0.01581 µM): 0.972 | relative viability (PC-3 [JPC-3]; first compound 0.05 µM): 0.483 | relative viability (PC-3 [JPC-3]; first compound 0.1581 µM): 0.702 | relative viability (PC-3 [JPC-3]; first compound 0.5 µM): 0.759 | relative viability (ABC-1; first compound 0.005 µM): 0.816 | relative viability (ABC-1; first compound 0.01581 µM): 1.22 | relative viability (ABC-1; first compound 0.1581 µM): 0.687 | relative viability (ABC-1; first compound 0.5 µM): 0.72 | relative viability (NCI-H1734; first compound 0.005 µM): 0.533 | relative viability (NCI-H1734; first compound 0.01581 µM): 0.555 | relative viability (NCI-H1734; first compound 0.1581 µM): 0.543 | relative viability (NCI-H1734; first compound 0.5 µM): 0.506 | relative viability (NCI-H1437; first compound 0.005 µM): 1.06 | relative viability (NCI-H1437; first compound 0.01581 µM): 1.23 | relative viability (NCI-H1437; first compound 0.05 µM): 1.06 | relative viability (NCI-H1437; first compound 0.1581 µM): 1.08 | relative viability (NCI-H1437; first compound 0.5 µM): 1.05 | relative viability (NCI-H2405; first compound 0.005 µM): 0.703 | relative viability (NCI-H2405; first compound 0.01581 µM): 0.857 | relative viability (NCI-H2405; first compound 0.05 µM): 0.622 | relative viability (NCI-H2405; first compound 0.1581 µM): 0.698 | relative viability (NCI-H2405; first compound 0.5 µM): 0.653 | relative viability (NCI-H1355; first compound 0.005 µM): 0.745 | relative viability (NCI-H1355; first compound 0.01581 µM): 0.728 | relative viability (NCI-H1355; first compound 0.05 µM): 0.588 | relative viability (NCI-H1355; first compound 0.1581 µM): 0.735 | relative viability (NCI-H1355; first compound 0.5 µM): 0.668 | relative viability (CAL-12T; first compound 0.005 µM): 0.626 | relative viability (CAL-12T; first compound 0.01581 µM): 0.593 | relative viability (CAL-12T; first compound 0.05 µM): 0.627 | relative viability (CAL-12T; first compound 0.1581 µM): 0.619 | relative viability (CAL-12T; first compound 0.5 µM): 0.541

O=C(O)c1ccc(-c2c[nH]c3ncc(-c4ccccc4)cc23)cc1C1CCCC1 + NC(=O)Nc1cc(-c2cccc(F)c2)sc1C(=O)N[C@H]1CCCNC1 [AZD7762] (partner 0.2 µM)
relative viability (PC-14; first compound 0.04 µM): 0.335 | relative viability (PC-14; first compound 0.1265 µM): 0.414 | relative viability (PC-14; first compound 0.4 µM): 0.407 | relative viability (PC-14; first compound 1.265 µM): 0.39 | relative viability (RERF-LC-KJ; first compound 0.04 µM): 0.569 | relative viability (RERF-LC-KJ; first compound 0.4 µM): 1.06 | relative viability (RERF-LC-KJ; first compound 1.265 µM): 0.935 | relative viability (LK-2; first compound 0.04 µM): 0.446 | relative viability (LK-2; first compound 0.1265 µM): 0.614 | relative viability (LK-2; first compound 0.4 µM): 0.373 | relative viability (LK-2; first compound 1.265 µM): 0.49 | relative viability (H3255; first compound 0.04 µM): 0.79 | relative viability (H3255; first compound 0.1265 µM): 0.991 | relative viability (H3255; first compound 0.4 µM): 0.953 | relative viability (H3255; first compound 1.265 µM): 0.88 | relative viability (NCI-H2342; first compound 0.04 µM): 0.41 | relative viability (NCI-H2342; first compound 0.1265 µM): 0.467 | relative viability (NCI-H2342; first compound 0.4 µM): 0.535 | relative viability (NCI-H2342; first compound 1.265 µM): 0.459 | relative viability (EKVX; first compound 0.04 µM): 0.679 | relative viability (EKVX; first compound 0.1265 µM): 0.818 | relative viability (EKVX; first compound 0.4 µM): 0.888 | relative viability (EKVX; first compound 1.265 µM): 0.593 | relative viability (NCI-H322M; first compound 0.04 µM): 0.585 | relative viability (NCI-H322M; first compound 0.1265 µM): 0.631 | relative viability (NCI-H322M; first compound 0.4 µM): 0.625 | relative viability (NCI-H322M; first compound 1.265 µM): 0.65 | relative viability (HCC-827; first compound 0.04 µM): 0.168 | relative viability (HCC-827; first compound 0.1265 µM): 0.191 | relative viability (HCC-827; first compound 0.4 µM): 0.242 | relative viability (HCC-827; first compound 1.265 µM): 0.203 | relative viability (HCC-15; first compound 0.04 µM): 1.22 | relative viability (HCC-15; first compound 0.1265 µM): 1.45 | relative viability (HCC-15; first compound 0.4 µM): 1.42 | relative viability (HCC-15; first compound 1.265 µM): 1.03 | relative viability (PC-3 [JPC-3]; first compound 0.04 µM): 0.693 | relative viability (PC-3 [JPC-3]; first compound 0.1265 µM): 0.967 | relative viability (PC-3 [JPC-3]; first compound 0.4 µM): 0.806 | relative viability (PC-3 [JPC-3]; first compound 1.265 µM): 0.766 | relative viability (ABC-1; first compound 0.04 µM): 0.726 | relative viability (ABC-1; first compound 0.1265 µM): 0.965 | relative viability (ABC-1; first compound 0.4 µM): 0.89 | relative viability (ABC-1; first compound 1.265 µM): 0.837 | relative viability (NCI-H1734; first compound 0.04 µM): 0.534 | relative viability (NCI-H1734; first compound 0.1265 µM): 0.68 | relative viability (NCI-H1734; first compound 0.4 µM): 0.606 | relative viability (NCI-H1734; first compound 1.265 µM): 0.645 | relative viability (NCI-H1437; first compound 0.04 µM): 1.15 | relative viability (NCI-H1437; first compound 0.1265 µM): 1.21 | relative viability (NCI-H1437; first compound 0.4 µM): 1.15 | relative viability (NCI-H1437; first compound 1.265 µM): 0.934 | relative viability (NCI-H2405; first compound 0.04 µM): 0.73 | relative viability (NCI-H2405; first compound 0.1265 µM): 0.919 | relative viability (NCI-H2405; first compound 0.4 µM): 0.767 | relative viability (NCI-H2405; first compound 1.265 µM): 0.583 | relative viability (NCI-H1355; first compound 0.04 µM): 0.729 | relative viability (NCI-H1355; first compound 0.1265 µM): 0.912 | relative viability (NCI-H1355; first compound 0.4 µM): 0.856 | relative viability (NCI-H1355; first compound 1.265 µM): 0.703 | relative viability (CAL-12T; first compound 0.04 µM): 0.632 | relative viability (CAL-12T; first compound 0.1265 µM): 0.698 | relative viability (CAL-12T; first compound 0.4 µM): 0.629 | relative viability (CAL-12T; first compound 1.265 µM): 0.671
